Data on one compound can be found in patent US4870183A, “Novel amino acid derivatives” (priority 1986, dated 1989).

Molecules are shown by their SMILES.

Assay [1] has as its target T1, plasma renin activity (Callithrix jacchus, UniProt Q9TSZ1).
T1 construct: from tissue; host or cells: plasma of furosemide-treated conscious male common marmosets
T1 sequence (Q9TSZ1 61-400): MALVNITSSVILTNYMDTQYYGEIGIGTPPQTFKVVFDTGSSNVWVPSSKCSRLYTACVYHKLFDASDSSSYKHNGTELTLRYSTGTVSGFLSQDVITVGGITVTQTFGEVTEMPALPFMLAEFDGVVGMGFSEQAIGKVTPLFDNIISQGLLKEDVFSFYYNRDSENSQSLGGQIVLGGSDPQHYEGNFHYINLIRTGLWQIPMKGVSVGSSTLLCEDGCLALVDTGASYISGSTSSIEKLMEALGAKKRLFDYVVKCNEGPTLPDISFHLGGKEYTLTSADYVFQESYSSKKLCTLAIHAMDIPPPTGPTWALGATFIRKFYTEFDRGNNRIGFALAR
Description: Renin inhibitory effect in plasma on common marmoset (plasma renin activity after oral dosing). It counts as in vivo. The note with it: 30 mg/kg oral single dose, furosemide-treated conscious marmosets, control 43.16. The procedure:
Renin Inhibitory Effect in Plasma on Common Marmoset
The experiment was carried out by using common marmoset as described in K. G. Hofbauer et al., CLINICAL AND EXPERIMENTAL HYPERTENSION, Vol. A5, Nos. 7 & 8 (1983), pages 1237-1247.
Furosemide was administered orally three times to common marmoset having a lower salt diet at 15 mg per kilogram per day every other day to create a high renin state. The experiment was carried out on the third day after the last furosemide dose.
Three conscious male marmosets weighing 310-460 g were placed into small restraining chair, and by using a catheter into the femoral artery, blood collecting was carried out at intervals of 60, 180 and 300 minutes.
Collected blood samples were centrifuged at 1200×g for 15 minutes at 4° C. Two hundred μl of the plasma was taken up and incubated for 60 minutes at 37° C., and the plasma renin activity was measured by radioimmunoassay using renin riabead kit (DAINABOT).
Compound A of this invention was dissolved in dilute hydrochloric acid, and administered orally at single dose of 30 mg/kg using catheter.

Assay [2] deals with T2, human renin (Homo sapiens, UniProt P00797).
T2 sequence (P00797 67-406): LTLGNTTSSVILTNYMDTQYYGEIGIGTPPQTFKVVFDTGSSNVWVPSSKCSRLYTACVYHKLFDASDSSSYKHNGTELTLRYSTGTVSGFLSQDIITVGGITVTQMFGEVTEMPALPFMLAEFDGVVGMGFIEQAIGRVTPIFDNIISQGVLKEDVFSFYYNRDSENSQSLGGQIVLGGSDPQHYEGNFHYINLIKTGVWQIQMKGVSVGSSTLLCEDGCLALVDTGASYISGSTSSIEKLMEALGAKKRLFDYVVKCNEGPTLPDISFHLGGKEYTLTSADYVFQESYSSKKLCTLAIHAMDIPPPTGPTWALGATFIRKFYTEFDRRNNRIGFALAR
In words: Inhibitory effect on human renin-sheep renin substrate reaction system in vitro. The assay is classed as biochemical. The procedure:
Inhibitory effect on human renin-sheep renin substrate reaction system in vitro
The mixture was incubated for 15 minutes on a water bath at 37° C., and the reaction mixture was allowed to stand for 5 minutes on a water bath at 100° C. to stop the reaction. After cooling, 200 μl of the solution was taken up and the amount of angiotensin I produced by the addition of renin was determined by radioimmunoassay using renin riabead kit (DAINABOT).
The inhibitory effect was calculated by the following equation.
As a control, the same procedure as above was carried out by using 50 μl of dimethyl sulfoxide alone in place of the 50 μl of dimethyl sulfoxide solution containing an amino acid compound of the present invention. [formula]

For assay [3], the target named is T3, renin in human high renin plasma (Homo sapiens, UniProt P00797).
T3 construct: from tissue; host or cells: human high renin plasma
T3 sequence (P00797 67-406): T2 sequence (P00797 67-406)
Description: Renin inhibitory effect in a human high renin plasma. It counts as biochemical. The procedure: Renin Inhibitory Effect in a Human High Renin Plasma
Two hundred μl of the mixture was placed on an ice bath, at 4° C., and remaining mixture (800 μl) was incubated for 60 minutes at 37° C. on a water bath. Two hundred μl of the incubated remaining mixture was chilled immediately on an ice bath, and the amount (A) of angiotensin I produced was determined by radioimmunoassay using renin riabead kit (DAINABOT).
The amount (B) of angiotensin I in the mixture placed on an ice bath at 4° C. was also determined by radioimmunoassay.
As a control, the same procedure as above was carried out by using 100 μl of dimethyl sulfoxide alone in place of 100 μl of dimethyl sulfoxide solution containing an amino acid compound of the present invention.
The net amount was estimated as the difference between A and B.
The inhibitory effect was calculated by the following equation. [formula]

A short description of assay [4]: Hypotensive effect in marmoset (tail cuff blood pressure, high renin state). The assay is classed as in vivo, common marmoset. The note with it: 30 mg/kg oral, conscious high renin marmoset, control 99.7. The procedure: Hypotensive Effect in Marmoset
The experiment was carried out by using common marmoset as described in K. G. Hofbauer et al., Clinical and Experimental Hypertension, Vol. A5, Nos. 7 & 8 pages 1237-1247.
Furosemide was administered orally three times to common marmoset at 15 mg per kilogram per day every other day to create a high renin state. Blood pressure of conscious marmoset was measured on the third day after the last furosemide dose.
A conscious male marmoset weighing 340 g was placed into small restraining chair. Blood pressure was measured on the tail cuff method using pretismograph. Compound A of this invention was dissolved in dilute hydrochloric acid, and administered orally at 30 mg/kg by using a catheter.

Take `CC(C)OC(=O)C(O)[C@H](CC1CCCCC1)NC(=O)[C@H](Cc1c[nH]cn1)NC(=O)C(Cc1ccccc1F)Cc1ccccc1F` (mixture of isomers) [Compound A, (2RS, 3S)-3-{N-[Bis(2-fluorobenzyl)acetyl]-L-histidyl}amino-4-cyclohexyl-2-hydroxybutyric acid isopropyl ester]: the results for the PRA in assay [1] (60 minutes after administration), in assay [1] (180 minutes after administration) and in assay [1] (300 minutes after administration) were 30.35 ng angiotensin I/ml/hr, 18.89 ng angiotensin I/ml/hr and 22.93 ng angiotensin I/ml/hr, respectively. Further, the IC50 in assay [2] worked out at 9.4 nM; in assay [3], 130 nM. Moreover, the Blood pressure in assay [4] (0.5 hours after administration) was determined as 94.7 mmHg; in assay [4] (1 hour after administration), 86.2 mmHg; in assay [4] (2 hours after administration), 89.7 mmHg; in assay [4] (3 hours after administration) it was 86.2 mmHg; in assay [4] (5 hours after administration), 85.7 mmHg.

The IC50 is the point on the concentration scale where inhibition reaches its midpoint. High values mean lower potency, low ones higher potency.
